Experimental data published in publication PMC8058344, “ARIH1 signaling promotes anti-tumor immunity by targeting PD-L1 for proteasomal degradation” (Nature Communications, 2021).

Experiments:
PDGFRa = PDGFRa (Homo sapiens, UniProt P16234); assay: In vitro kinase specificity profiling; type: biochemical
GSK3α = assay: Immunoblots of p-GSK3α in H1975 cells; type: cell-based, human; conditions: 10 μM, 24 h, compared to Gefitinib and AZD9291
Method: For western blot analysis, cells were collected and washed with PBS, then lysed in radioimmunoprecipitation assay (RIPA) buffer (1% Triton X-100, 100 mM Tris-HCl pH 8.8, 100 mM NaCl, 0.5 mM EDTA). After incubation on ice for 30 min, the lysates were centrifuged at 12,000 × g for 10 min at 4 °C. The supernatant was collected and the protein concentration was measured by bicinchoninic acid reaction. Protein samples were added with 2× loading buffer and heated at 100 °C for 10 min, separated with SDS-polyacrylamide gel electrophoresis (SDS-PAGE), transferred onto polyvinylidene difluoride membranes, and blocked with 5% non-fat milk in Phosphate Buffered Saline with 0.1% Tween-20 (PBST) for 1 h at room temperature. The membranes were probed with the corresponding primary antibodies at 4 °C overnight and horseradish peroxidase-conjugated secondary antibodies at room temperature for 1 h. Signals were detected using chemiluminescence reagents (#4AW001-500, 4A649 Biotech, Co.).
Flag-EV Flag-PD-L1 Flag-EV Flag-PD-L1
43 Flag-PD-L1-TM Flag-PD-L1-TM
GSK3 concenseus phosphorylation motif:S/TXXX S/T EGFR 180 […]
Supplementary Figure 4. […] Quantification for the mean area (MA) of PD-L1/GSK3α (n = 50) or PD-L1/GSK3β (n = 44-50) PLA speckles are indicated by scattergram. […]

Sequence of PDGFRa (P16234 24-1089, species assumed): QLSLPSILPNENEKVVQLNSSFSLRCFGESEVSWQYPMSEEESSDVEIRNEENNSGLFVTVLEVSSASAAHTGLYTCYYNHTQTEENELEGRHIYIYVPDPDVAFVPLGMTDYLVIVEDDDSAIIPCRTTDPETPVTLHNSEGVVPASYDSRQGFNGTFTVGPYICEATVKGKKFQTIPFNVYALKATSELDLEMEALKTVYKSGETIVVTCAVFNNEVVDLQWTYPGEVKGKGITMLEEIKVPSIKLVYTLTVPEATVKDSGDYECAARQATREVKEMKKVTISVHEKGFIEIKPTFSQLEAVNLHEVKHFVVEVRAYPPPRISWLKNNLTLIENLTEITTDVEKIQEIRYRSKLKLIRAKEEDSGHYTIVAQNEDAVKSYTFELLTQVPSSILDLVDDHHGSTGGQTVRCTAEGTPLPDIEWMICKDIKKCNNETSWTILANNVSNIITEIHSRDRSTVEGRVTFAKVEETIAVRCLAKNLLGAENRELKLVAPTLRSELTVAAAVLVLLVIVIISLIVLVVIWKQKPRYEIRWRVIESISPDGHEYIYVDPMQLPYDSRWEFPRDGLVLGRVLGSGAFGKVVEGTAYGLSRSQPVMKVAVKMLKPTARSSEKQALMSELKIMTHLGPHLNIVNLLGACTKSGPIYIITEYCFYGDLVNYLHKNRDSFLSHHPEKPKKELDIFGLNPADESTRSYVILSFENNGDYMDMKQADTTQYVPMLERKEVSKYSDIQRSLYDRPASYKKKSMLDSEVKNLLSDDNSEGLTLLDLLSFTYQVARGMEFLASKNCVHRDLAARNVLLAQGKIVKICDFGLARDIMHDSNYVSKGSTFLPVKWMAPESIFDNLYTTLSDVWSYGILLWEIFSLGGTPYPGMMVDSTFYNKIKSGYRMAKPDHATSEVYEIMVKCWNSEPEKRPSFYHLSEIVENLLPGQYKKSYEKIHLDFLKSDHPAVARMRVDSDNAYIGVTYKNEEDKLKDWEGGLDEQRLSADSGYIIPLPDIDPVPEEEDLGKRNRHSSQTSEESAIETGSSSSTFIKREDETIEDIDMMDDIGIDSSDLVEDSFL

**Q.** Which results are given for C=CC(=O)Nc1cccc(Nc2nc(Nc3ccc(N4CCN(C)CC4)nc3OC)ncc2C(F)(F)F)c1 [ES-072]?
**A.** IC50 (PDGFRa): 3.85 µM; activation effect on GSK3α (loss of the inhibitory phosphorylation of GSK3α) (GSK3α): higher activation effect
